Results on twelve molecules are retold here after PubChem BioAssay AID212 (DTP/NCI, 2004).

Several values for one entry are separate records, joined by “and”; a condition that tells them apart may be missing. Identical values can stand only once. Results filed as inconclusive are left out. Where a SMILES comes first, the peptide text is derived from it. The star is where a group is joined. Trt = c1ccc(C(c2ccccc2)(c2ccccc2)*)cc1; Cbz = O=C(OCc1ccccc1)*; Bn = c1ccc(C*)cc1; βAla = NCCC(=O)O

This experiment relates to BDF1 mice, colon carcinoma 38 sc, T/C %. In words: NCI In Vivo Anticancer Drug Screen. Data for tumor model Colon Carcinoma 38 (subcutaneous) in B6D2F1 (BDF1) mice. Particulars: endpoint: median tumor weight (est.), higher = larger tumour. The procedure, abridged:
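Compound antitumor activity was assessed in mice carrying transplantable tumors. Survival or tumor size was recorded, and each value is the treated-group measurement divided by that of the vehicle-treated control group.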

The mark [1] stands for this setting: dose: 25.0 mg/kg/injection, schedule: Q07DX002 (ip), vehicle: Klucel (hydroxypropylcellulose) (HPC).
The mark [2] stands for this setting: dose: 50.0 mg/kg/injection, schedule: Q07DX002 (ip), vehicle: Klucel (hydroxypropylcellulose) (HPC).
[3] abbreviates: dose: 100.0 mg/kg/injection, schedule: Q07DX002 (ip), vehicle: Klucel (hydroxypropylcellulose) (HPC).
Where [4] appears, read: dose: 200.0 mg/kg/injection, schedule: Q07DX002 (ip), vehicle: Klucel (hydroxypropylcellulose) (HPC).
Where [5] appears, read: dose: 400.0 mg/kg/injection, schedule: Q07DX002 (ip), vehicle: Klucel (hydroxypropylcellulose) (HPC).
The mark [6] stands for this setting: dose: 50.0 mg/kg/injection, schedule: Q07DX002 (ip), vehicle: saline with Tween-80.
[7] abbreviates: dose: 100.0 mg/kg/injection, schedule: Q07DX002 (ip), vehicle: saline with Tween-80.
Where [8] appears, read: dose: 200.0 mg/kg/injection, schedule: Q07DX002 (ip), vehicle: saline with Tween-80.
The mark [9] stands for this setting: dose: 800.0 mg/kg/injection, schedule: Q07DX002 (ip), vehicle: Klucel (hydroxypropylcellulose) (HPC).

As to `Nc1nc(=S)c2ncn(C3CC(O)C(CO)O3)c2[nH]1` (centres undefined), the T/C reads like this: (dose: 4.0 mg/kg/injection, schedule: Q07DX003 (ip), vehicle: saline with Tween-80) 63 % of control; (dose: 5.0 mg/kg/injection, schedule: Q07DX003 (ip), vehicle: saline with Tween-80) 32 % of control; (dose: 8.0 mg/kg/injection, schedule: Q07DX003 (ip), vehicle: saline with Tween-80) 111 % of control; (dose: 10.0 mg/kg/injection, schedule: Q07DX003 (ip), vehicle: saline with Tween-80) 22 % of control; (dose: 16.0 mg/kg/injection, schedule: Q07DX003 (ip), vehicle: saline with Tween-80) 39 % of control; (dose: 20.0 mg/kg/injection, schedule: Q07DX003 (ip), vehicle: saline with Tween-80) 25 % of control. Also, the T/C runs as follows: (dose: 32.0 mg/kg/injection, schedule: Q07DX003 (ip), vehicle: saline with Tween-80) 89 % of control; (dose: 40.0 mg/kg/injection, schedule: Q07DX003 (ip), vehicle: saline with Tween-80) 14 % of control; (dose: 64.0 mg/kg/injection, schedule: Q07DX003 (ip), vehicle: saline with Tween-80) 110 % of control; (dose: 80.0 mg/kg/injection, schedule: Q07DX003 (ip), vehicle: saline with Tween-80) 4 % of control; (dose: 128.0 mg/kg/injection, schedule: Q07DX003 (ip), vehicle: saline with Tween-80) 36 % of control.

Take `COC(=O)C(CSC(c1ccccc1)(c1ccccc1)c1ccccc1)NC(=O)C(CSCc1ccccc1)NC(=O)CCNC(=O)OCc1ccccc1` (centres undefined) ({Cbz-βAla}-Cys(Bn)-Cys(Trt)-OMe; configuration not given here): the T/C is 106 % of control under setting [1]; 109 % of control under setting [2]; 96 % of control under setting [3]; 87 % of control under setting [4]; 123 % of control under setting [5].

Take `CCC(C)C(=O)OC1C(=O)OC2CC3C(C)=CC(=O)C(O)C3(C)C3C4(O)OCC23C1C(C)C4O` (centres undefined): the T/C (dose: 0.5 mg/kg/injection, schedule: Q07DX002 (ip), vehicle: suspension in saline) was 90 % of control; the T/C (dose: 1.0 mg/kg/injection, schedule: Q07DX002 (ip), vehicle: suspension in saline) is 77 % of control; the T/C (dose: 2.0 mg/kg/injection, schedule: Q07DX002 (ip), vehicle: suspension in saline) is 58 % of control; the T/C (dose: 4.0 mg/kg/injection, schedule: Q07DX002 (ip), vehicle: suspension in saline) was 88 % of control; the T/C (dose: 8.0 mg/kg/injection, schedule: Q07DX002 (ip), vehicle: suspension in saline) was 44 % of control.

As to `c1cc(OCC2CO2)ccc1OCC1CO1` (centres undefined), the T/C under setting [1] is 76 % of control; the T/C under setting [2] is 96 % of control; the T/C under setting [6] is 113 % of control; the T/C under setting [3] is 67 % of control; the T/C under setting [7] was 94 % of control; the T/C under setting [4] is 63 % of control. In addition, the T/C is, setting by setting: under setting [8], 82 % of control; under setting [5], 77 % of control; (dose: 400.0 mg/kg/injection, schedule: Q07DX002 (ip), vehicle: saline with Tween-80) 102 % of control; (dose: 800.0 mg/kg/injection, schedule: Q07DX002 (ip), vehicle: saline with Tween-80) 77 % of control.

With `CCOC(OCC)C(=O)OCC(=O)[C@]1(O)Cc2c(O)c3c(c(O)c2[C@@H](OC2CC(N)C(O)C(C)O2)C1)C(=O)c1c(OC)cccc1C3=O` (some centres undefined), the T/C (dose: 0.5 mg/kg/injection, schedule: Q07DX002 (ip), vehicle: water) was 85 % of control; the T/C (dose: 2.0 mg/kg/injection, schedule: Q07DX002 (ip), vehicle: water) was 107 % of control; the T/C (dose: 4.0 mg/kg/injection, schedule: Q07DX002 (ip), vehicle: water) was 88 % of control.

Take `Cc1ccccc1N(CC1CO1)CC1CO1` (centres undefined): the T/C runs as follows: (dose: 25.0 mg/kg/injection, schedule: Q07DX002 (ip), vehicle: saline with Tween-80) 81 % of control; under setting [6], 104 % of control; under setting [7], 57 % of control; under setting [8], 123 % of control; (dose: 200.0 mg/kg/injection, schedule: Q07DX002 (ip), vehicle: saline) 154 % of control; (dose: 800.0 mg/kg/injection, schedule: Q07DX002 (ip), vehicle: saline) 89 % of control.

Turning to `CN(C)S(=O)(=O)CCNC(=O)N(CCCl)N=O`, the T/C by setting is: (dose: 5.4 mg/kg/injection, schedule: Q07DX002 (oral), vehicle: saline) 108 % of control; (dose: 7.5 mg/kg/injection, schedule: Q07DX002 (oral), vehicle: saline with Tween-80) 65 % of control; (dose: 9.0 mg/kg/injection, schedule: Q07DX002 (oral), vehicle: saline) 106 % of control; (dose: 15.0 mg/kg/injection, schedule: Q07DX002 (oral), vehicle: saline) 94 % of control; (dose: 25.0 mg/kg/injection, schedule: Q07DX002 (oral), vehicle: saline) 18 % of control.

Take `CC(=O)O[C@@H]1[C@@H](O)C2=C3[C@]4(C)[C@@H]1C(C)(C)C(=O)C[C@@H]4[C@]3(O)[C@H](OC(C)=O)[C@@]1(C[C@@H]1C)C2=O`: the T/C was 97 % of control (dose: 3.12 mg/kg/injection, schedule: Q07DX003 (ip), vehicle: saline with Tween-80); 93 % of control (dose: 6.25 mg/kg/injection, schedule: Q07DX003 (ip), vehicle: saline with Tween-80); 86 % of control (dose: 25.0 mg/kg/injection, schedule: Q07DX003 (ip), vehicle: saline with Tween-80); 64 % of control (dose: 50.0 mg/kg/injection, schedule: Q07DX003 (ip), vehicle: saline with Tween-80).

Take `CNC(=O)O/N=C(\CN=[N+]=[N-])C(C)(C)C`: under “dose: 1.0 mg/kg/injection, schedule: Q07DX002 (ip), vehicle: saline”, the T/C is 103 % of control.

Take `C[C@H](N)C(=O)N[C@@H]1[C@H]2C(=C(O)C[C@@H](O)[C@@H]2O)C(=O)O[C@]1(C)C(Cl)Cl`: the T/C runs as follows: (dose: 0.37 mg/kg/injection, schedule: Q07DX002 (ip), vehicle: Klucel (hydroxypropylcellulose) (HPC)) 97 % of control; (dose: 0.38 mg/kg/injection, schedule: Q07DX002 (ip), vehicle: Klucel (hydroxypropylcellulose) (HPC)) 75 % of control; (dose: 3.0 mg/kg/injection, schedule: Q07DX002 (ip), vehicle: Klucel (hydroxypropylcellulose) (HPC)) 53 % of control and 59 % of control; (dose: 6.0 mg/kg/injection, schedule: Q07DX002 (ip), vehicle: Klucel (hydroxypropylcellulose) (HPC)) 30 % of control and 40 % of control.

Take `COc1cc(C)c(C2NC(=O)c3ccccc3N2)cc1C` (centres undefined): the T/C by setting is: under setting [2], 121 % of control; under setting [3], 78 % of control; under setting [5], 117 % of control; under setting [9], 108 % of control.

For `C[C@]12CCC(=O)C=C1CC[C@@H]1[C@@H]2C(=O)C[C@@]2(C)[C@H]1CC[C@]2(O)C(=O)CO`, the T/C was 74 % of control (dose: 40.0 mg/kg/injection, schedule: Q07DX003 (ip), vehicle: Klucel (hydroxypropylcellulose) (HPC)); 117 % of control under setting [2]; 88 % of control (dose: 80.0 mg/kg/injection, schedule: Q07DX003 (ip), vehicle: Klucel (hydroxypropylcellulose) (HPC)); 69 % of control under setting [3]; 66 % of control (dose: 160.0 mg/kg/injection, schedule: Q07DX003 (ip), vehicle: Klucel (hydroxypropylcellulose) (HPC)); 45 % of control under setting [4]. For the same molecule, the T/C runs as follows: (dose: 320.0 mg/kg/injection, schedule: Q07DX003 (ip), vehicle: Klucel (hydroxypropylcellulose) (HPC)) 74 % of control; under setting [5], 53 % of control; (dose: 640.0 mg/kg/injection, schedule: Q07DX003 (ip), vehicle: Klucel (hydroxypropylcellulose) (HPC)) 47 % of control; under setting [9], 66 % of control; (dose: 1200.0 mg/kg/injection, schedule: Q07DX002 (ip), vehicle: Klucel (hydroxypropylcellulose) (HPC)) 67 % of control.
